Reference: patent US8802597B2, “Herbicidal pyrimidines” (E I du Pont de Nemours and Company, priority 2003, dated 2014)

How the values were obtained:
Experiment in all cases: Test D pre/postemergence
Type in all cases: in vivo
Conditions in all cases: scale 0 to 100 (100 = complete control)
[1] = tested on: Russian thistle (Salsola kali)
Excerpt: (§1) Seeds of plant species selected from catchweed bedstraw (galium; Galium aparine), common chickweed (Stellaria media), kochia (Kochia scoparia), lambsquarters (Chenopodium album), pigweed (Amaranthus retroflexus), Russian thistle (Salsola kali), wild buckwheat (Polygonum convolvulus), wild mustard (Sinapis arvensis), winter barley (Hordeum vulgare), and wheat (Triticum aestivum) were planted and treated preemergence with test chemicals formulated in a non-phytotoxic solvent mixture which included a surfactant.
(§2) At the same time, plants selected from these crop and weed species were treated with postemergence applications of some of the test chemicals formulated in the same manner. Plants ranged in height from 2 to 18 cm (1- to 4-leaf stage) for postemergence treatments. Treated plants and controls were maintained in a controlled growth environment for 15 to 25 days after which time all species were compared to controls and visually evaluated. Plant response ratings, summarized in Table D, are based on a scale of 0 to 100 where 0 is no effect and 100 is complete control. A dash (-) response means no test result.

[2] = tested on: catchweed bedstraw (galium; Galium aparine)
Excerpt: as §1, §2

[3] = tested on: common chickweed (Stellaria media)
Excerpt: as §1, §2

kochia (Kochia scoparia) = tested on: kochia (Kochia scoparia)
Excerpt: as §1, §2

[4] = tested on: lambsquarters (Chenopodium album)
Excerpt: as §1, §2

[5] = tested on: pigweed (Amaranthus retroflexus)
Excerpt: as §1, §2

[6] = tested on: wheat (Triticum aestivum)
Excerpt: as §1, §2

[7] = tested on: wild buckwheat (Polygonum convolvulus)
Excerpt: as §1, §2

[8] = tested on: wild mustard (Sinapis arvensis)
Excerpt: as §1, §2

## COC(=O)c1nc(C2CC2)nc(NO)c1Br [Compound 35]
[1]; Postemergence, 62 g ai/ha
  Plant response rating, Russian Thistle: 100
[1]; Postemergence, 125 g ai/ha
  Plant response rating, Russian Thistle: 100
[1]; Postemergence, 250 g ai/ha
  Plant response rating, Russian Thistle: 100
[1]; Preemergence, 62 g ai/ha
  Plant response rating, Russian Thistle: 85
[1]; Preemergence, 125 g ai/ha
  Plant response rating, Russian Thistle: 100
[1]; Preemergence, 250 g ai/ha
  Plant response rating, Russian Thistle: 100
[2]; Postemergence, 62 g ai/ha
  Plant response rating, Galium: 100
[2]; Postemergence, 125 g ai/ha
  Plant response rating, Galium: 100
[2]; Postemergence, 250 g ai/ha
  Plant response rating, Galium: 100
[2]; Preemergence, 62 g ai/ha
  Plant response rating, Galium: 85
[2]; Preemergence, 125 g ai/ha
  Plant response rating, Galium: 100
[2]; Preemergence, 250 g ai/ha
  Plant response rating, Galium: 100
[3]; Postemergence, 62 g ai/ha
  Plant response rating, Chickweed: 80
[3]; Postemergence, 125 g ai/ha
  Plant response rating, Chickweed: 80
[3]; Postemergence, 250 g ai/ha
  Plant response rating, Chickweed: 85
[3]; Preemergence, 62 g ai/ha
  Plant response rating, Chickweed: 60
[3]; Preemergence, 125 g ai/ha
  Plant response rating, Chickweed: 100
[3]; Preemergence, 250 g ai/ha
  Plant response rating, Chickweed: 100
Kochia (Kochia scoparia); Postemergence, 62 g ai/ha
  Plant response rating, Kochia: 80
Kochia (Kochia scoparia); Postemergence, 125 g ai/ha
  Plant response rating, Kochia: 85
Kochia (Kochia scoparia); Postemergence, 250 g ai/ha
  Plant response rating, Kochia: 85
Kochia (Kochia scoparia); Preemergence, 62 g ai/ha
  Plant response rating, Kochia: 75
Kochia (Kochia scoparia); Preemergence, 125 g ai/ha
  Plant response rating, Kochia: 100
Kochia (Kochia scoparia); Preemergence, 250 g ai/ha
  Plant response rating, Kochia: 100
[4]; Postemergence, 62 g ai/ha
  Plant response rating, Lambsquarters: 100
[4]; Postemergence, 125 g ai/ha
  Plant response rating, Lambsquarters: 100
[4]; Postemergence, 250 g ai/ha
  Plant response rating, Lambsquarters: 100
[4]; Preemergence, 62 g ai/ha
  Plant response rating, Lambsquarters: 65
[4]; Preemergence, 125 g ai/ha
  Plant response rating, Lambsquarters: 75
[4]; Preemergence, 250 g ai/ha
  Plant response rating, Lambsquarters: 80
[5]; Postemergence, 62 g ai/ha
  Plant response rating, Pigweed: 100
[5]; Postemergence, 125 g ai/ha
  Plant response rating, Pigweed: 100
[5]; Postemergence, 250 g ai/ha
  Plant response rating, Pigweed: 100
[5]; Preemergence, 62 g ai/ha
  Plant response rating, Pigweed: 65
[5]; Preemergence, 125 g ai/ha
  Plant response rating, Pigweed: 80
[5]; Preemergence, 250 g ai/ha
  Plant response rating, Pigweed: 85
[6]; Postemergence, 62 g ai/ha
  Plant response rating, Wheat: 0
[6]; Postemergence, 125 g ai/ha
  Plant response rating, Wheat: 65
[6]; Postemergence, 250 g ai/ha
  Plant response rating, Wheat: 70
[6]; Preemergence, 62 g ai/ha
  Plant response rating, Wheat: 35
[6]; Preemergence, 125 g ai/ha
  Plant response rating, Wheat: 40
[6]; Preemergence, 250 g ai/ha
  Plant response rating, Wheat: 50
[7]; Postemergence, 62 g ai/ha
  Plant response rating, Buckwheat, Wild: 60
[7]; Postemergence, 125 g ai/ha
  Plant response rating, Buckwheat, Wild: 70
[7]; Postemergence, 250 g ai/ha
  Plant response rating, Buckwheat, Wild: 80
[7]; Preemergence, 62 g ai/ha
  Plant response rating, Buckwheat, Wild: 55
[7]; Preemergence, 125 g ai/ha
  Plant response rating, Buckwheat, Wild: 60
[7]; Preemergence, 250 g ai/ha
  Plant response rating, Buckwheat, Wild: 65
[8]; Postemergence, 62 g ai/ha
  Plant response rating, Mustard, Wild: 75
[8]; Postemergence, 125 g ai/ha
  Plant response rating, Mustard, Wild: 75
[8]; Postemergence, 250 g ai/ha
  Plant response rating, Mustard, Wild: 75
[8]; Preemergence, 62 g ai/ha
  Plant response rating, Mustard, Wild: 65
[8]; Preemergence, 125 g ai/ha
  Plant response rating, Mustard, Wild: 70
[8]; Preemergence, 250 g ai/ha
  Plant response rating, Mustard, Wild: 75

## CCOC(=O)Cc1nc(C2CC2)nc(N=CN(C)C)c1Br [Compound 33]
[1]; Postemergence, 62 g ai/ha
  Plant response rating, Russian Thistle: 30
[1]; Postemergence, 125 g ai/ha
  Plant response rating, Russian Thistle: 40
[1]; Postemergence, 250 g ai/ha
  Plant response rating, Russian Thistle: 40
[1]; Preemergence, 62 g ai/ha
  Plant response rating, Russian Thistle: 55
[1]; Preemergence, 125 g ai/ha
  Plant response rating, Russian Thistle: 60
[1]; Preemergence, 250 g ai/ha
  Plant response rating, Russian Thistle: 85
[2]; Postemergence, 62 g ai/ha
  Plant response rating, Galium: 55
[2]; Postemergence, 125 g ai/ha
  Plant response rating, Galium: 60
[2]; Postemergence, 250 g ai/ha
  Plant response rating, Galium: 65
[2]; Preemergence, 62 g ai/ha
  Plant response rating, Galium: 70
[2]; Preemergence, 125 g ai/ha
  Plant response rating, Galium: 80
[2]; Preemergence, 250 g ai/ha
  Plant response rating, Galium: 100
[3]; Postemergence, 62 g ai/ha
  Plant response rating, Chickweed: 40
[3]; Postemergence, 125 g ai/ha
  Plant response rating, Chickweed: 50
[3]; Postemergence, 250 g ai/ha
  Plant response rating, Chickweed: 60
[3]; Preemergence, 250 g ai/ha
  Plant response rating, Chickweed: 65
Kochia (Kochia scoparia); Postemergence, 62 g ai/ha
  Plant response rating, Kochia: 50
Kochia (Kochia scoparia); Postemergence, 125 g ai/ha
  Plant response rating, Kochia: 50
Kochia (Kochia scoparia); Postemergence, 250 g ai/ha
  Plant response rating, Kochia: 50
Kochia (Kochia scoparia); Preemergence, 62 g ai/ha
  Plant response rating, Kochia: 60
Kochia (Kochia scoparia); Preemergence, 125 g ai/ha
  Plant response rating, Kochia: 65
Kochia (Kochia scoparia); Preemergence, 250 g ai/ha
  Plant response rating, Kochia: 65
[4]; Postemergence, 62 g ai/ha
  Plant response rating, Lambsquarters: 30
[4]; Postemergence, 125 g ai/ha
  Plant response rating, Lambsquarters: 30
[4]; Postemergence, 250 g ai/ha
  Plant response rating, Lambsquarters: 45
[4]; Preemergence, 62 g ai/ha
  Plant response rating, Lambsquarters: 60
[4]; Preemergence, 125 g ai/ha
  Plant response rating, Lambsquarters: 65
[4]; Preemergence, 250 g ai/ha
  Plant response rating, Lambsquarters: 65
[5]; Postemergence, 62 g ai/ha
  Plant response rating, Pigweed: 45
[5]; Postemergence, 125 g ai/ha
  Plant response rating, Pigweed: 55
[5]; Postemergence, 250 g ai/ha
  Plant response rating, Pigweed: 55
[5]; Preemergence, 62 g ai/ha
  Plant response rating, Pigweed: 60
[5]; Preemergence, 125 g ai/ha
  Plant response rating, Pigweed: 70
[5]; Preemergence, 250 g ai/ha
  Plant response rating, Pigweed: 90
[6]; Postemergence, 62 g ai/ha
  Plant response rating, Wheat: 35
[6]; Postemergence, 125 g ai/ha
  Plant response rating, Wheat: 40
[6]; Postemergence, 250 g ai/ha
  Plant response rating, Wheat: 45
[6]; Preemergence, 62 g ai/ha
  Plant response rating, Wheat: 15
[6]; Preemergence, 125 g ai/ha
  Plant response rating, Wheat: 35
[6]; Preemergence, 250 g ai/ha
  Plant response rating, Wheat: 55
[7]; Postemergence, 62 g ai/ha
  Plant response rating, Buckwheat, Wild: 40
[7]; Postemergence, 125 g ai/ha
  Plant response rating, Buckwheat, Wild: 50
[7]; Postemergence, 250 g ai/ha
  Plant response rating, Buckwheat, Wild: 55
[7]; Preemergence, 62 g ai/ha
  Plant response rating, Buckwheat, Wild: 55
[7]; Preemergence, 125 g ai/ha
  Plant response rating, Buckwheat, Wild: 65
[7]; Preemergence, 250 g ai/ha
  Plant response rating, Buckwheat, Wild: 65
[8]; Postemergence, 62 g ai/ha
  Plant response rating, Mustard, Wild: 50
[8]; Postemergence, 125 g ai/ha
  Plant response rating, Mustard, Wild: 50
[8]; Postemergence, 250 g ai/ha
  Plant response rating, Mustard, Wild: 50
[8]; Preemergence, 62 g ai/ha
  Plant response rating, Mustard, Wild: 65
[8]; Preemergence, 125 g ai/ha
  Plant response rating, Mustard, Wild: 65
[8]; Preemergence, 250 g ai/ha
  Plant response rating, Mustard, Wild: 65
